Measurements taken from publication PMC5608352, “Formyl peptide derived lipopeptides disclose differences between the receptors in mouse and men and call the pepducin concept in question” (PLoS ONE, 2017).
Residues, ends and D or L forms follow the SMILES beside them. *: point of attachment. Palmitoyl = CCCCCCCCCCCCCCCC(=O)*

Legend:
Assay type in all cases: cell-based
Fpr2 [1] = molecular target: T1, Fpr2 (Mus musculus, UniProt O88536); experiment: Inhibition of F2M2-induced superoxide release, WT mouse neutrophils; conditions: mF2Pal16 500 nM; F2M2 150 nM; three independent experiments
T1 construct: WT mouse neutrophils (5 x 10^4 cells) were pre-incubated without (solid line) or with mF2Pal16; endogenous in cells; host or cells: bone marrow neutrophils of C57BL/6 wild-type mice, TNF-alpha primed
T1 sequence (O88536 1-351): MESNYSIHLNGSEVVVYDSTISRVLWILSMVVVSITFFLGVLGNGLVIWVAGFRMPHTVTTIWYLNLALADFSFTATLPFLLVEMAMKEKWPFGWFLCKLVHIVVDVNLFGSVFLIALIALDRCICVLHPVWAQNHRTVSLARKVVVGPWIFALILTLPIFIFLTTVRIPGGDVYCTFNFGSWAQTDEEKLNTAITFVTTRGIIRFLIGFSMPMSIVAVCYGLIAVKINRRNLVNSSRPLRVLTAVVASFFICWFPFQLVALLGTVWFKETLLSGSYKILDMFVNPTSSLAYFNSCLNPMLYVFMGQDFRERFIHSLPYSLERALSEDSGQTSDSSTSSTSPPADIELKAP
Text: (§1) Mice (8–12 weeks of age) were killed by cervical dislocation, the femurs and tibias were removed and freed of soft tissue attachments, and the extreme distal tip of each extremity was cut off. KRG without Ca^2+ and Mg^2+ (KRG-) was forced through the bone by using a 1-mL syringe with a 27-gauge needle. After dispersing cell clumps and removing the debris, the bone marrow granulocytes were isolated according to an earlier described procedure with some modifications. Briefly, a cell suspension in 2 mL of KRG- was laid on top of a three-layer Percoll gradient (1.095, 1.085, and 1.070 g/mL). The density of each Percoll solution was verified using density marker beads. […] The cell number and population of bone marrow cells were determined by flow cytometry based on forward scatter (size) and side scatter (density) localization.
(§2) NADPH-oxidase activity was determined using an isoluminol and HRP-enhanced chemiluminescence (CL) system that allow for the determination of superoxide production. The CL activity was measured in a six-channel Biolumat LB 9505 apparatus (Berthold Co., Wildbad, Germany), using disposable 4-mL polypropylene tubes with 1 mL reaction mixture. […] The light emission was recorded continuously over time and presented as superoxide production (in arbitrary light units, cpm x10^-6) as a function of time (min). […]

Fpr2 [2] = molecular target: T1, Fpr2; experiment: Inhibition of PSMα2-induced superoxide release, WT mouse neutrophils; conditions: mF2Pal16 500 nM, 5 min pre-incubation; PSMα2 10 nM
Text: as §1, §2

Fpr1 = experiment: Inhibition of fMIFL-induced superoxide release, WT mouse neutrophils; conditions: fMIFL 10 nM; mF2Pal16 1 μM (inset) or 500 nM
Text: as §1, §2

human neutrophils = experiment: Direct activation: superoxide release (isoluminol/HRP chemiluminescence), human neutrophils; conditions: 10^5 cells, 37°C, isoluminol/HRP CL, pepducin 1 μM
Text: Human peripheral blood neutrophils were isolated from buffy coats from healthy blood donors using dextran sedimentation and Ficoll-Paque gradient centrifugation as described. The remaining erythrocytes were disrupted by hypotonic lysis and the neutrophils were washed twice, suspended in KRG and, stored on melting ice until use. This isolation process permits cells to be purified with minimal granule mobilization. The buffy coats were obtained from the blood bank at Sahlgrenska University Hospital. Ethics approval was not needed since the buffy coats were provided anonymously and could not be traced back to a specific individual. This is in line with Swedish legislation section code 4§ 3p SFS 2003:460 (Lag om etikprövning av forskning som avser människor).
as §2, with “(min). The activity before stimulus addition was recorded as basal line and this activity was not changed in vehicle control samples.” for “(min).”

CCCCCCCCCCCCCCCC(=O)N[C@@H](CCCCN)C(=O)N[C@H](C(=O)N[C@@H](CC(N)=O)C(=O)N[C@@H](CCCNC(=N)N)C(=O)N[C@@H](CCCNC(=N)N)C(=O)N[C@@H](CC(N)=O)C(=O)N[C@@H](CC(C)C)C(=O)N[C@H](C(=O)N[C@@H](CC(N)=O)C(=O)N[C@@H](CO)C(=O)N[C@@H](CO)C(=O)N[C@@H](CCCNC(=N)N)C(=O)N1CCC[C@H]1C(=O)N[C@@H](CC(C)C)C(=O)N[C@@H](CCCNC(=N)N)C(=O)N[C@H](C(=O)O)C(C)C)C(C)C)[C@@H](C)CC [mF2Pal16] (Palmitoyl-KINRRNLVNSSRPLRV-OH; C-terminus assumed)
effect on F2M2 response, mouse neutrophils (Fpr2 [1]): inhibitory effect | inhibition of PSMα2 response, mouse neutrophils (Fpr2 [2]): potently inhibited | effect on fMIFL response, mouse neutrophils (Fpr1): no effect | superoxide release / activation of human neutrophils (human neutrophils): did not activate human neutrophils to produce superoxide
